Reference: ChEMBL document CHEMBL3272271, “Folate antagonists. 13. 2,4-Diamino-6-](alpha,alpha,alpha-trifluoro-m-tolyl)thio]quinazoline and related 2,4-diamino-6-[(phenyl- and naphthyl)thio]quinazolines, a unique class of antimetabolites with extraordinary antimalarial and antibacterial effects” (J Med Chem, 1978)
≈ marks a conversion by molar mass, not a printed value. Calls of active or inactive are those of the source. The rule behind the calls is not given here.

Columns and labels:
Enterococcus faecalis = assay: Antibacterial activity against Streptococcus faecalis MGH-2 by gradient plate test; type: functional
Plasmodium berghei [1] = assay: Antimalarial activity against Plasmodium berghei infected in mouse assessed as disease cure from parasite infection at 320 mg/kg, sc administered 72 hrs after infection; type: functional, organism-based; parameters: dose 320 mg/kg
Plasmodium gallinaceum [2] = assay: Antimalarial activity against trophozoite-induced Plasmodium gallinaceum infected in white leghorn chicken assessed as increase in mean survival days of host at 160 mg/kg, sc administered 72 hrs after infection relative to control; type: functional; conditions: route subcutaneous
Plasmodium gallinaceum [3] = assay: Antimalarial activity against trophozoite-induced Plasmodium gallinaceum infected in white leghorn chicken assessed as increase in mean survival days of host at 320 mg/kg, sc administered 72 hrs after infection relative to control; type: functional; conditions: route subcutaneous
Plasmodium gallinaceum [4] = assay: Antimalarial activity against trophozoite-induced Plasmodium gallinaceum infected in white leghorn chicken assessed as increase in mean survival days of host at 0.63 mg/kg, sc administered 72 hrs after infection relative to control; type: functional; conditions: route subcutaneous
Plasmodium gallinaceum [5] = assay: Antimalarial activity against trophozoite-induced Plasmodium gallinaceum infected in white leghorn chicken assessed as increase in mean survival days of host at 20 mg/kg, sc administered 72 hrs after infection relative to control; type: functional; conditions: route subcutaneous
Plasmodium berghei [6] = assay: Antimalarial activity against Plasmodium berghei infected in mouse assessed as disease cure from parasite infection at 640 mg/kg, sc administered 72 hrs after infection; type: functional, organism-based; parameters: dose 640 mg/kg
Staphylococcus aureus [7] = assay: Antibacterial activity against drug-resistant Staphylococcus aureus S18713 by gradient plate test; type: functional
Plasmodium berghei [8] = assay: Antimalarial activity against Plasmodium berghei infected in mouse assessed as increase in mean survival days of host at 2.5 mg/kg, sc administered 72 hrs after infection relative to control; type: functional; conditions: route subcutaneous
Plasmodium gallinaceum [9] = assay: Antimalarial activity against trophozoite-induced Plasmodium gallinaceum infected in white leghorn chicken assessed as increase in mean survival days of host at 10 mg/kg, sc administered 72 hrs after infection relative to control; type: functional; conditions: route subcutaneous
Plasmodium berghei [10] = assay: Antimalarial activity against trophozoite-induced Plasmodium berghei infected in mouse assessed as daily dose required to suppression of 90% parasite infection administered with diet for 6 days; type: functional
Plasmodium gallinaceum [11] = assay: Antimalarial activity against trophozoite-induced Plasmodium gallinaceum infected in white leghorn chicken assessed as disease cure from parasite infection at 320 mg/kg, sc administered 72 hrs after infection; type: functional, organism-based; parameters: dose 320 mg/kg
Plasmodium gallinaceum [12] = assay: Antimalarial activity against trophozoite-induced Plasmodium gallinaceum infected in white leghorn chicken assessed as disease cure from parasite infection at 160 mg/kg, sc administered 72 hrs after infection; type: functional, organism-based; parameters: dose 160 mg/kg
Plasmodium berghei [13] = assay: Antimalarial activity against Plasmodium berghei infected in mouse assessed as increase in mean survival days of host at 40 mg/kg, sc administered 72 hrs after infection relative to control; type: functional; conditions: route subcutaneous
Plasmodium berghei [14] = assay: Antimalarial activity against Plasmodium berghei infected in mouse assessed as increase in mean survival days of host at 20 mg/kg, sc administered 72 hrs after infection relative to control; type: functional; conditions: route subcutaneous
Escherichia coli = assay: Antibacterial activity against Escherichia coli Vogel by gradient plate test; type: functional
Plasmodium berghei [15] = assay: Antimalarial activity against Plasmodium berghei infected in mouse assessed as disease cure from parasite infection at 80 mg/kg, sc administered 72 hrs after infection; type: functional, organism-based; parameters: dose 80 mg/kg
Plasmodium berghei [16] = assay: Ratio of quinine hydrochloride SD90 to compound SD90 for trophozoite-induced Plasmodium berghei infected in mouse assessed as daily dose required to suppression of 90% parasite infection administered with diet for 6 days; type: functional
Plasmodium berghei [17] = assay: Antimalarial activity against Plasmodium berghei infected in mouse assessed as increase in mean survival days of host at 10 mg/kg, sc administered 72 hrs after infection relative to control; type: functional; conditions: route subcutaneous
Plasmodium berghei [18] = assay: Antimalarial activity against Plasmodium berghei infected in mouse assessed as disease cure from parasite infection at 40 mg/kg, sc administered 72 hrs after infection; type: functional, organism-based; parameters: dose 40 mg/kg
Plasmodium berghei [19] = assay: Antimalarial activity against Plasmodium berghei infected in mouse assessed as disease cure from parasite infection at 160 mg/kg, sc administered 72 hrs after infection; type: functional, organism-based; parameters: dose 160 mg/kg
Plasmodium berghei [20] = assay: Antimalarial activity against Plasmodium berghei infected in mouse assessed as increase in mean survival days of host at 1.25 mg/kg, sc administered 72 hrs after infection relative to control; type: functional; conditions: route subcutaneous
Plasmodium gallinaceum [21] = assay: Antimalarial activity against trophozoite-induced Plasmodium gallinaceum infected in white leghorn chicken assessed as increase in mean survival days of host at 2.5 mg/kg, sc administered 72 hrs after infection relative to control; type: functional; conditions: route subcutaneous
Staphylococcus aureus [22] = assay: Antibacterial activity against Staphylococcus aureus UC-96 by gradient plate test; type: functional
Shigella sonnei = assay: Antibacterial activity against Shigella sonnei C-10 by gradient plate test; type: functional
Pseudomonas aeruginosa = assay: Antibacterial activity against Pseudomonas aeruginosa 28 by gradient plate test; type: functional
Plasmodium gallinaceum [23] = assay: Antimalarial activity against trophozoite-induced Plasmodium gallinaceum infected in white leghorn chicken assessed as increase in mean survival days of host at 80 mg/kg, sc administered 72 hrs after infection relative to control; type: functional; conditions: route subcutaneous
Plasmodium gallinaceum [24] = assay: Antimalarial activity against trophozoite-induced Plasmodium gallinaceum infected in white leghorn chicken assessed as increase in mean survival days of host at 40 mg/kg, sc administered 72 hrs after infection relative to control; type: functional; conditions: route subcutaneous
Plasmodium gallinaceum [25] = assay: Antimalarial activity against trophozoite-induced Plasmodium gallinaceum infected in white leghorn chicken assessed as increase in mean survival days of host at 1.25 mg/kg, sc administered 72 hrs after infection relative to control; type: functional; conditions: route subcutaneous
Plasmodium berghei [26] = assay: Antimalarial activity against Plasmodium berghei infected in mouse assessed as increase in mean survival days of host at 5 mg/kg, sc administered 72 hrs after infection relative to control; type: functional; conditions: route subcutaneous
Mus musculus = assay: Toxicity in Plasmodium berghei infected mouse assessed as mortality at 640 mg/kg, sc administered 72 hrs after infection measured after 2 to 5 days; type: organism-based; parameters: dose 640 mg/kg, route subcutaneous; conditions: in vivo
Plasmodium gallinaceum [27] = assay: Antimalarial activity against trophozoite-induced Plasmodium gallinaceum infected in white leghorn chicken assessed as increase in mean survival days of host at 5 mg/kg, sc administered 72 hrs after infection relative to control; type: functional; conditions: route subcutaneous
Gallus gallus = assay: Toxicity in sporozoite-induced Plasmodium gallinaceum infected white leghorn chicken assessed as mortality at 480 mg/kg, sc administered 72 hrs after infection measured up to 6 days; type: organism-based; parameters: dose 480 mg/kg, route subcutaneous; conditions: in vivo
Plasmodium gallinaceum [28] = assay: Antimalarial activity against sporozoite-induced Plasmodium gallinaceum infected in white leghorn chicken assessed as disease cure from parasite infection at 60 mg/kg, sc administered 72 hrs after infection; type: functional, organism-based; parameters: dose 60 mg/kg
Plasmodium gallinaceum [29] = assay: Antimalarial activity against sporozoite-induced Plasmodium gallinaceum infected in white leghorn chicken assessed as disease cure from parasite infection at 120 mg/kg, sc administered 72 hrs after infection; type: functional, organism-based; parameters: dose 120 mg/kg
Plasmodium berghei [30] = assay: Antimalarial activity against Plasmodium berghei infected in mouse assessed as increase in mean survival days of host at 80 mg/kg, sc administered 72 hrs after infection relative to control; type: functional; conditions: route subcutaneous
Plasmodium gallinaceum [31] = assay: Antimalarial activity against sporozoite-induced Plasmodium gallinaceum infected in white leghorn chicken assessed as disease cure from parasite infection at 480 mg/kg, sc administered 72 hrs after infection; type: functional, organism-based; parameters: dose 480 mg/kg
Plasmodium gallinaceum [32] = assay: Antimalarial activity against sporozoite-induced Plasmodium gallinaceum infected in white leghorn chicken assessed as disease cure from parasite infection at 240 mg/kg, sc administered 72 hrs after infection; type: functional, organism-based; parameters: dose 240 mg/kg
[33] = system: Mycobacterium tuberculosis; assay: Antibacterial activity against Mycobacterium tuberculosis H37Ra by gradient plate test; type: functional
Plasmodium gallinaceum [34] = assay: Antimalarial activity against sporozoite-induced Plasmodium gallinaceum infected in white leghorn chicken assessed as disease cure from parasite infection at 15 mg/kg, sc administered 72 hrs after infection; type: functional, organism-based; parameters: dose 15 mg/kg
Plasmodium gallinaceum [35] = assay: Antimalarial activity against sporozoite-induced Plasmodium gallinaceum infected in white leghorn chicken assessed as increase in mean survival days of host at 15 mg/kg, sc administered 72 hrs after infection relative to control; type: functional; conditions: route subcutaneous
Plasmodium gallinaceum [36] = assay: Antimalarial activity against sporozoite-induced Plasmodium gallinaceum infected in white leghorn chicken assessed as disease cure from parasite infection at 30 mg/kg, sc administered 72 hrs after infection; type: functional, organism-based; parameters: dose 30 mg/kg
Plasmodium berghei [37] = assay: Antimalarial activity against Plasmodium berghei infected in mouse assessed as increase in mean survival days of host at 160 mg/kg, sc administered 72 hrs after infection relative to control; type: functional; conditions: route subcutaneous
Plasmodium gallinaceum [38] = assay: Antimalarial activity against sporozoite-induced Plasmodium gallinaceum infected in white leghorn chicken assessed as increase in mean survival days of host at 30 mg/kg, sc administered 72 hrs after infection relative to control; type: functional; conditions: route subcutaneous

Row | SMILES | MIC (Enterococcus faecalis) [µg/mL] | Activity (Plasmodium berghei [1]) | MST (Plasmodium gallinaceum [2]) [days] | MST (Plasmodium gallinaceum [3]) [days] | MST (Plasmodium gallinaceum [5]) [days] | Activity (Plasmodium berghei [6]) | MIC (Staphylococcus aureus [7]) [µg/mL] | MST (Plasmodium berghei [8]) [days] | MST (Plasmodium gallinaceum [9]) [days] | SD90 (Plasmodium berghei [10]) [mg/kg/day] | Activity (Plasmodium gallinaceum [11]) | MST (Plasmodium berghei [13]) [days] | MST (Plasmodium berghei [14]) [days] | MIC (Escherichia coli) [µg/mL] | Activity (Plasmodium berghei [15]) | MST (Plasmodium berghei [17]) [days] | Activity (Plasmodium berghei [19]) | MIC (Staphylococcus aureus [22]) [µg/mL] | MIC (Shigella sonnei) [µg/mL] | MIC (Pseudomonas aeruginosa) [µg/mL] | further results
1 | Cc1ccccc1Sc1ccc2nc(N)nc(N)c2c1 | < 0.25 | Active | 17 | 16 | 7.6 | Active | < 0.25 | 5.5 | 6.6 | 4.1 | Active | 17 | 10.5 | < 0.25 | Active | 9.9 | Active | < 0.25 | 1 (≈ 3.54 µM) | > 25 | MST (Plasmodium gallinaceum [4]): 0 days; Activity (Plasmodium gallinaceum [12]): Active; Ratio (Plasmodium berghei [16]): 18; Activity (Plasmodium berghei [18]): Active; MST (Plasmodium berghei [20]): 1.1 days; MST (Plasmodium gallinaceum [21]): 0 days; MST (Plasmodium gallinaceum [23]): 12 days; MST (Plasmodium gallinaceum [24]): 11 days; MST (Plasmodium gallinaceum [25]): 0 days; MST (Plasmodium berghei [26]): 7.3 days; Activity (Mus musculus): Toxic; MST (Plasmodium gallinaceum [27]): 2.4 days
2 | Cc1ccc(Sc2ccc3nc(N)nc(N)c3c2)cc1 | < 0.25 | Active | 22.2 | 20 | 7.6 | Active | < 0.25 |  | 4.6 | 7.2 | Active | 7.1 | 3.9 | < 0.25 | Active | 2.5 | Active | < 0.25 | 0.5 (≈ 1.77 µM) | > 25 | Activity (Gallus gallus): Toxic; Activity (Plasmodium gallinaceum [28]): Active; Activity (Plasmodium gallinaceum [29]): Active; MST (Plasmodium berghei [30]): 9.7 days; Activity (Plasmodium gallinaceum [31]): Active; Ratio (Plasmodium berghei [16]): 10; Activity (Plasmodium gallinaceum [32]): Active; MST (Plasmodium gallinaceum [23]): 15.2 days; MST (Plasmodium gallinaceum [24]): 10.4 days
3 | Nc1nc(N)c2c(Cl)c(Sc3ccc(F)cc3)ccc2n1 | < 0.25 | Active |  |  |  | Active | < 0.25 |  |  |  |  | 15.6 | 6.9 | < 0.25 | Active |  | Active | < 0.25 | < 0.25 | > 25 | Activity (Plasmodium berghei [18]): Active; Activity (Mus musculus): Toxic; MIC [33]: 5 µg/mL (≈ 15.6 µM)
4 | Nc1nc(N)c2cc(Sc3c(F)c(F)cc(F)c3F)ccc2n1 | < 0.25 | Active |  |  |  | Active | < 0.25 | 0.3 |  |  |  | 6.1 | 2.7 | 2 (≈ 5.88 µM) | Active | 0.5 | Active | < 0.25 | 15 (≈ 44.1 µM) | > 25 | Activity (Plasmodium gallinaceum [34]): Active; MST (Plasmodium gallinaceum [35]): 1.7 days; Activity (Plasmodium gallinaceum [36]): Active; MST (Plasmodium berghei [37]): 14.9 days; Activity (Plasmodium gallinaceum [28]): Active; Activity (Plasmodium gallinaceum [29]): Active; MST (Plasmodium berghei [30]): 8.9 days; Activity (Plasmodium gallinaceum [31]): Active; Activity (Plasmodium gallinaceum [32]): Active; MST (Plasmodium berghei [26]): 0.3 days; MST (Plasmodium gallinaceum [38]): 2.7 days
